Key:
human neutrophils [1] = assay: Release of Inflammatory Metabolites (PGE2, LTB4) and Inflammatory Metabolite Marker (5-HETE) from PMA/A23187-stimulated neutrophils, LC-MS/MS of supernatants; type: cell-based; details: for net decrease in cellular concentration of Inflammatory Metabolites and Inflammatory Metabolite Markers (aggregate): vs control cells subjected only to inflammation precipitating condition; for decrease in cellular concentration of 5-HETE / decrease in cellular concentration of LTB4 / decrease in cellular concentration of PGE2: vs PMA/A23187 control; for decrease in Inflammatory Metabolites and Inflammatory Metabolite Markers (aggregate): vs control cells exposed to inflammation precipitating condition
Method: (§1) Ingredients were tested to assess the ability to promote Pro-Resolution Pathway Stimulators in human neutrophils. The following Inflammatory Metabolites were measured: PGE2 and LTB4. The Inflammatory Metabolite Marker, 5-HETE, was measured. Also measured were the Pro-Resolving Lipid Mediator Markers 15-HETE, 12-HETE, 14-HDOHE, 18-HEPE, and 17-HDOHE. PGE2, LTB4, and 5-HETE are indicators of inflammation. Increases in cellular secretion of PGE2, LTB4, or 5-HETE are seen in response to inflammation precipitating conditions. Active ingredients that cause a reduction in cellular concentration of PGE2, LTB4, or 5-HETE are anti-inflammatory in nature. Cellular secretion of Pro-Resolving Lipid Mediators occurs in the inflammation resolution phase. Active ingredients that stimulate cellular secretion of Pro-Resolving Lipid Mediators (as measured by measuring Pro-Resolving Lipid Mediator Markers) help to promote resolution of inflammation.
(§2) Then, the inflammatory response was initiated by adding an inflammation precipitating ingredient, in particular PMA/[…] which is a mixture of 5-(methylamino)-2-({2R,3R,6S,8S,9R,11R)-3,9,11-trimethyl-8-[(1S)-1-methyl-2-oxo-2-(1H-pyrrol-2-yl)ethyl]-1,7-dioxaspiro[5.5]undec-2-yl}methyl)-1,3-benzoxazole-4-carboxylic acid and PMA (phorbol myristate acetate), at a concentration of 0.05 μm and 1 μm respectively to each well. After one hour the supernatants were collected and stored at −80° C. until assayed.
(§3) Cell supernatants were assayed for Inflammatory Metabolites (PGE2, LBT4), Inflammatory Metabolite Markers (5-HETE), and Pro-Resolving Lipid Mediator Markers 15-HETE, 12-HETE, 14-HDOHE, 18-HEPE, and 17-HDOHE. More specifically, analysis was performed by extraction using an Oasis HLB 96-well plate (Waters) according to manufacturer's directions.
(§4) Suitable Pro-Resolving Activators are ingredients that show an increase in cellular concentration of Pro-Resolving Lipid Mediator Markers 15-HETE, 12-HETE, 14-HDOHE, 18-HEPE, and 17-HDOHE alone or in combination, when cells exposed to an inflammation precipitating condition either before or after exposure to the active.

human neutrophils [2] = assay: Release of Pro-Resolving Lipid Mediator Markers (15-HETE, 12-HETE, 14-HDOHE, 18-HEPE, 17-HDOHE) from PMA/A23187-stimulated neutrophils, LC-MS/MS of supernatants; type: cell-based
Method: as §1, §2, §3, §4

For resveratrol salicylate, the “decrease in cellular concentration of Inflammatory Metabolites and Inflammation Metabolite Markers in the aggregate (better than control)” value (from here on “decrease … (better than control)”) (human neutrophils [1]; 0.43 ug/ml) was 87%, the “decrease … (better than control)” value (human neutrophils [1]; 4.3 ug/ml) was 163% and the “decrease … (better than control)” value (human neutrophils [1]; 43 ug/ml) was 257%. The “increase in cellular concentration of Pro-Resolving Lipid Mediator Markers, in the aggregate” value (shortened to “increase in cellular concentration”) (human neutrophils [2]; 0.43 ug/ml) was “not being as effective”, the “increase in cellular concentration” value (human neutrophils [2]; 4.3 ug/ml) was 4% and the “increase in cellular concentration” value (human neutrophils [2]; 43 ug/ml) was 37%.
With `O=C(O)c1ccccc1O` [salicylic acid] the “net decrease in cellular concentration of Inflammatory Metabolites and Inflammatory Metabolite Markers (aggregate)” value (“net decrease in cellular concentration” below) (human neutrophils [1]; 0.33 μg/ml (first of range 0.33 to 33 μg/ml)) was 29%, the “decrease in cellular concentration of 5-HETE” value (from here on “decrease … of 5-HETE”) (human neutrophils [1]; 0.33 μg/ml) was 15% and the “decrease in cellular concentration of LTB4” value (“decrease … of LTB4” for short) (human neutrophils [1]; 0.33 μg/ml) was 1%. The “decrease in cellular concentration of PGE2” value (shortened to “decrease … of PGE2”) (human neutrophils [1]; 0.33 μg/ml) was 19%, the “net decrease in cellular concentration” value (human neutrophils [1]; 3.3 μg/ml (second of range 0.33 to 33 μg/ml)) was 58% and the “decrease … of 5-HETE” value (human neutrophils [1]; 3.3 μg/ml) was 20%. For the same compound, the “decrease … of LTB4” value (human neutrophils [1]; 3.3 μg/ml) was 12%, the “decrease … of PGE2” value (human neutrophils [1]; 3.3 μg/ml) was 28% and the “net decrease in cellular concentration” value (human neutrophils [1]; 33 μg/ml (third of range 0.33 to 33 μg/ml)) was 46%. For the same compound, the “decrease … of 5-HETE” value (human neutrophils [1]; 33 μg/ml) was 27%, the “decrease … of LTB4” value (human neutrophils [1]; 33 μg/ml) was 17% and the “decrease … of PGE2” value (human neutrophils [1]; 33 μg/ml) was 19%. For the same compound, the “change in cellular concentration of Pro-Resolving Lipid Mediators (aggregate)” value (human neutrophils [2]; 0.33 μg/ml, vs control cells) was “small increase”, the “change in cellular concentration of all Pro-Resolving Lipid Mediator Markers in the aggregate” value (human neutrophils [2]; 3.3 μg/ml, vs control cells) was “decreased” and the “change in cellular concentration of Pro-Resolving Lipid Mediator Marker 15-HETE” value (human neutrophils [2]; 33 μg/ml, vs control cells) was “decrease”. For the same compound, the “change in cellular concentration of all Pro-Resolving Lipid Mediator Markers in the aggregate” value (human neutrophils [2]; 33 μg/ml, vs control cells) was “decreased”.
With `Oc1ccc(C=Cc2cc(O)cc(O)c2)cc1` [resveratrol] the “decrease in Inflammatory Metabolites and Inflammatory Metabolite Markers (aggregate)” value (human neutrophils [1]; 0.1 ug/ml) was 45%, the “decrease in Inflammatory Metabolites and Inflammatory Metabolite Markers (aggregate)” value (human neutrophils [1]; 1 ug/ml) was 59% and the “decrease in Inflammatory Metabolites and Inflammatory Metabolite Markers (aggregate)” value (human neutrophils [1]; 10 ug/ml) was 106%. The “% change of Pro-Resolving Lipid Mediator Markers, in the aggregate, compared to control” value (“% change” below) (human neutrophils [2]; 0.1 ug/ml) was −27%, the “% change” value (human neutrophils [2]; 1 ug/ml) was −16% and the “% change” value (human neutrophils [2]; 10 ug/ml) was −10%.
